Consider three compounds from US9453062B2, “Glucose dependent insulinotropic polypeptide analogs, pharmaceutical compositions and use thereof” (Beijing Hanmi Pharmaceutical Co., Ltd., priority 2011, dated 2016).

The target in assay [1] is T1, hGIPR (Homo sapiens, UniProt P48546).
T1 construct: expressed in transfected cells; host or cells: CHO
T1 sequence (P48546 22-466): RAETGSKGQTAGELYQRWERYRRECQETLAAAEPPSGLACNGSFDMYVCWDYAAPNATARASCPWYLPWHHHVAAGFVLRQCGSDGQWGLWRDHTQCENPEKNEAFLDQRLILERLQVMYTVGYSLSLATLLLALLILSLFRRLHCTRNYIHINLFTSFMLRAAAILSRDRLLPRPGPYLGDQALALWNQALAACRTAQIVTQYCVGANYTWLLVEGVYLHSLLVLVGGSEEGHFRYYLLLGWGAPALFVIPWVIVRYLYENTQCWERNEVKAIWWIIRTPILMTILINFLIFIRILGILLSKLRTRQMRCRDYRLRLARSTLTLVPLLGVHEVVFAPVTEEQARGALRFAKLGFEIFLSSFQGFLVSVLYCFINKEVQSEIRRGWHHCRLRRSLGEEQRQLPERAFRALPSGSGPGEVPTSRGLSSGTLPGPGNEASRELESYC
The experiment in a line: hGIPR-mediated cAMP induction assay in CHO cell line. As to conditions: Table 3; for GIP Receptor Relative Potency: against native GIP. In kind it is cell-based.
Description: The cAMP in the sample or standard competes with horseradish peroxidase (HRP)-labeled cAMP conjugate for binding sites on the anti-cAMP antibodies. In the absence of cAMP, most of the HRP-cAMP conjugate is bound to the antibody. Increasing concentrations of cAMP competitively decrease the amount of bound conjugate, thus decreasing measured HRP activity.
Assay kit: CatchPoint™ Cyclic-AMP Fluorescent Assay Kit (Molecular Devices, Product # R8088)
Cell lines: CHO hGLP1R, CHO hGIPR
Cell seeding: CHO hGLP1R or CHO hGIPR cells: 10,000 cells/well/100 uL at 37° C. 5% CO2 overnight.
Gently aspirate off media and wash the cells with KRBG Buffer, 100 uL/well.
Incubate the plate for 10 min at room temperature. Then add the KRBG buffer with 3× final concentration of the tested samples (5-foled series diluted from 5,000 nM), 50 uL/well. Incubate the plate at 37° C. 5% CO2 for 30 min.
Add 50 uL of Lysis buffer to each well and put the plate on a shaker for 10 min.
Place 40 uL of samples and analyze in appropriate wells. And test the cAMP concentration in each sample by following the manufacture's instruction.
Detect the fluorescence signal at Ex: 490 nm and Em: 530 nm. Transfer the FI signal to cAMP concentration by the cAMP standard curve. The Dose-response curve and EC50 were obtained by logistic fitting of Origin 8.

The target of assay [2] is T2, hGLP-1R (Homo sapiens, UniProt P43220).
T2 construct: expressed in transfected cells; host or cells: CHO
T2 sequence (P43220 24-463): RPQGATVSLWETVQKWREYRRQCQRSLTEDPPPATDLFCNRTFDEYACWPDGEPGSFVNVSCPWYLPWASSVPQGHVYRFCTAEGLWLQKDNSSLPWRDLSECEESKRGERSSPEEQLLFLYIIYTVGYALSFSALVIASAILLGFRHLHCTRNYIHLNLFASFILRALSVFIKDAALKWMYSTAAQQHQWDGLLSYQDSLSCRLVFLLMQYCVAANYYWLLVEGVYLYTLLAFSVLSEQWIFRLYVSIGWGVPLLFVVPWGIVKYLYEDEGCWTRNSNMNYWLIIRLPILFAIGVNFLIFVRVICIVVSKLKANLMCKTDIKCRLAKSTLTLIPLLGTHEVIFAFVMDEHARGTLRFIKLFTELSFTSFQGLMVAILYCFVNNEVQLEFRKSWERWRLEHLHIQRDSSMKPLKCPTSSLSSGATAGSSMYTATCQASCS
The experiment in a line: hGLP-1R-mediated cAMP induction assay in CHO cell line.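 For all read-outs here: CHO cells expressing human GLP-1R, treated 30 min at 37 °C, intracellular cAMP measured by competitive fluorescent immunoassay and converted via a cAMP standard curve.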 It is filed as cell-based. The conditions noted are these: Table 3; for GLP-1 Receptor Relative Potency: against native GLP-1.

Where a SMILES comes first, the peptide text is derived from it. Bridges are numbered along the chain shown (N, C = ends). [ ]: non-standard residue; d: D form. The star is where a group is joined. Palmitoyl = CCCCCCCCCCCCCCCC(=O)*; Aib = CC(C)(N)C(=O)O

Broadly, the EC50 is the concentration needed to bring the measured effect to its halfway point. Low readings indicate a more potent agent, high ones a less potent agent. As to `CCCCCCCCCCCCCCCC(=O)NCCCC[C@H](NC(=O)[C@H](CO)NC(=O)[C@@H]1CCCN1C(=O)[C@@H]1CCCN1C(=O)[C@@H]1CCCN1C(=O)[C@H](C)NC(=O)CNC(=O)[C@H](CO)NC(=O)[C@H](CO)NC(=O)[C@@H]1CCCN1C(=O)CNC(=O)CNC(=O)[C@H](CCCCN)NC(=O)[C@@H](NC(=O)[C@H](CC(C)C)NC(=O)[C@H](Cc1c[nH]c2ccccc12)NC(=O)[C@H](C)NC(=O)[C@@H](NC(=O)[C@H](Cc1ccccc1)NC(=O)[C@H](CCC(=O)O)NC(=O)[C@H](CCCNC(=N)N)NC(=O)[C@@H](NC(=O)[C@H](C)NC(=O)[C@H](CCC(=O)O)NC(=O)[C@H](CCCCN)NC(=O)[C@H](CCC(=O)O)NC(=O)[C@H](CCSC)NC(=O)[C@H](Cc1ccc(O)cc1)NC(=O)[C@@H](NC(=O)[C@H](CO)NC(=O)[C@H](Cc1ccc(O)cc1)NC(=O)[C@H](CC(=O)O)NC(=O)[C@H](CO)NC(=O)[C@@H](NC(=O)[C@H](Cc1ccccc1)NC(=O)[C@@H](NC(=O)CNC(=O)[C@H](CCC(=O)O)NC(=O)C(C)(C)NC(=O)[C@@H](N)Cc1ccc(O)cc1)[C@@H](C)O)[C@@H](C)O)[C@@H](C)CC)C(C)C)[C@@H](C)CC)C(C)C)C(N)=O` [Compound 068], the EC50 in assay [1] (CHO hGIPR cells) was 0.037 nM; in assay [2] (CHO hGLP1R cells), 0.169 nM. Besides, in assay [1], the “GIP Receptor Relative Potency” value is on record as 38.9. In assay [2], the “GLP-1 Receptor Relative Potency” value was determined as 566.
As for `CCCCCCCCCCCCCCCC(=O)NCCCC[C@H](NC(=O)CNC(=O)[C@H](CCCCN)NC(=O)[C@@H](NC(=O)[C@H](CC(C)C)NC(=O)[C@H](Cc1c[nH]c2ccccc12)NC(=O)[C@H](C)NC(=O)[C@@H](NC(=O)[C@H](Cc1ccccc1)NC(=O)[C@H](CCC(=O)O)NC(=O)[C@H](CCCNC(=N)N)NC(=O)[C@@H](NC(=O)[C@H](C)NC(=O)[C@H](CCC(=O)O)NC(=O)[C@@H]1CCCCNC(=O)CC[C@H](NC(=O)[C@H](CO)NC(=O)[C@H](Cc2ccc(O)cc2)NC(=O)[C@H](CC(=O)O)NC(=O)[C@H](CO)NC(=O)[C@@H](NC(=O)[C@H](Cc2ccccc2)NC(=O)[C@@H](NC(=O)CNC(=O)[C@H](CCC(=O)O)NC(=O)C(C)(C)NC(=O)[C@@H](N)Cc2ccc(O)cc2)[C@@H](C)O)[C@@H](C)O)C(=O)N[C@@H](Cc2ccc(O)cc2)C(=O)N[C@@H](CCSC)C(=O)N[C@@H](CCC(=O)O)C(=O)N1)C(C)C)[C@@H](C)CC)C(C)C)C(N)=O` [Compound 084] (H-Y[Aib]EGTFTSDYSEYMEKEAVREFIAWLVKGK(Palmitoyl)-NH2; lactam 12-16), the “GIP Receptor Relative Potency” value in assay [1] is given as 8.8. In addition, the “GLP-1 Receptor Relative Potency” value in assay [2] was 22.2.
For `CCCCCCCCCCCCCCCC(=O)NCCCC[C@H](NC(=O)[C@@H](NC(=O)[C@H](C)NC(=O)[C@H](CCC(=O)O)NC(=O)[C@H](CCCCN)NC(=O)[C@H](CCC(=O)O)NC(=O)[C@H](CCSC)NC(=O)[C@H](Cc1ccc(O)cc1)NC(=O)[C@@H](NC(=O)[C@H](CO)NC(=O)[C@H](Cc1ccc(O)cc1)NC(=O)[C@H](CC(=O)O)NC(=O)[C@H](CO)NC(=O)[C@@H](NC(=O)[C@H](Cc1ccccc1)NC(=O)[C@@H](NC(=O)CNC(=O)[C@H](CCC(=O)O)NC(=O)C(C)(C)NC(=O)[C@@H](N)Cc1ccc(O)cc1)[C@@H](C)O)[C@@H](C)O)[C@@H](C)CC)C(C)C)C(=O)N[C@@H](CCC(=O)O)C(=O)N[C@@H](Cc1ccccc1)C(=O)N[C@H](C(=O)N[C@@H](C)C(=O)N[C@@H](Cc1c[nH]c2ccccc12)C(=O)N[C@@H](CC(C)C)C(=O)N[C@H](C(=O)N[C@@H](CCCCN)C(=O)NCC(N)=O)C(C)C)[C@@H](C)CC` [Compound 067] (H-Y[Aib]EGTFTSDYSIYMEKEAVK(Palmitoyl)EFIAWLVKG-NH2) the same measures were 4.6 and 13.9.
